Experimental data reported in patent US12534477B2, “Compound having KHK inhibitory effect” (HANGZHOU ZHONGMEIHUADONG PHARMACEUTICAL CO., LTD., priority 2019, dated 2026).
Where two headings read alike, the source gives them in different places.

Assays:
[1] = biological target: Recombinant Human Ketohexokinase (KHK) (Homo sapiens (Human), UniProt P50053); test: Ketohexokinase assay (KHK assay), ADP-Glo; assay type: biochemical
Protocol: • 1. EnVision multilabel reader, Perkin Elmer; • 2. OptiPlate 384-well microplate, Perkin Elmer, Cat. No. 6007290; • 3. Recombinant Human Ketohexokinase (KHK), R&D Cat. No.: 8177-HK-020, Lot No.: DDFK0117092; • 4. Fructose (D(−)-Fructose), SCR Cat. No.: 36003034; and • 5. ADP-Glo kinase assay kit, Promega_Cat. No.: V9101.
1. preparation of Dilution Buffer containing 50 mM hydroxyethylpiperazine […] (Hepes), 140 mM KCl, 3.5 mM MgCl2, and 0.01% bovine serum albumin (BSA), pH 7.4.
2. A working solution of ketohexokinase at 2.5 times concentration was prepared with Dilution Buffer, with 50 nM ketohexokinase and 12.5 mM fructose.
3. A working solution of adenosine triphosphate (ATP) at 2.5 times concentration was prepared with Dilution Buffer, with a concentration of 250 μM.
4. Each compound was diluted starting at a concentration of 500 μM, 3-fold diluted for 9 concentration points. The final concentration of the compound in the reaction system started from 10 μM and the final concentration of dimethyl sulfoxide (DMSO) was 2%.
5. A 96-well plate was prepared as a reaction plate, and was incubated at room temperature for 5 min after adding 6 μL ketohexokinase working solution at 2.5 times concentration to each well and further adding 3 μL compound working solution to each well.
6. The first well of each row was a positive control for a compound, i.e. the same volume of the buffer was added to replace the compound and ketohexokinase. The last well was a negative control for the compound, i.e. the same volume of Dilution Buffer was added instead of the compound.
7. 6 μL ATP working solution was added to each well in a 96-well reaction plate to initiate the kinase reaction. The kinase reaction was incubated in a constant temperature heater at 28° C. for 1 h.
1. A384 plate was prepared as a detection plate, and firstly 5 μL ADP-Glo reagent was added.
2. 5 μL kinase reaction mixture from the reaction plate was added to each well and incubated in a constant temperature heater at 28° C. for 30 min.
3. 10 μL kinase detection reagent was added to each well and incubated in a constant temperature heater at 28° C. for 30 min.
4. The detection plate was placed in an EnVision multilabel reader to read the chemiluminescent signal.

[2] = tested on: fructose metabolism in mice; test: Acute fructose feeding experiment in mice; assay type: in vivo; settings: compound 30 mpk, oral fructose 1 g/kg
Protocol: The effect of test compounds on the fructose content in mice with high fructose intake was investigated.
All animals were acclimated for one week in an animal house, fed with normal chow and fasted for 16 hours before being given fructose.
1) The experiment began at −0.5 hr. A control group was given a certain volume of vehicle (a certain proportion of methylcellulose and Tween 80 in water), and an experimental group was given a certain dose of a solution of the compound (the administered volume was consistent with the vehicle).
2) 0.5 hour later and before administration of a fructose solution, a blood sample was collected at 0 hr, followed by oral administration of 1 g/kg of an aqueous fructose solution.
3) After the administration of fructose, blood samples were collected from saphenous vein of mice at 0.25, 0.5, 1, 2, 3 and 8 hr, and fructose concentration was analyzed by LC-MS/MS.

[3] = Liver-blood ratio, tissue distribution in rats; assay type: in vivo, SD rats; settings: SD, rat, 1 mg/kg, PO 1 mpk
Protocol: Tissue distribution of compounds in SD rats was tested.
In the experiment, candidate compounds were formulated as clear solutions and administered to rats in a single oral dose (PO, 1 mpk). The vehicle for oral administration was a certain proportion of methylcellulose and Tween 80 in water. Whole blood was collected at a certain time and plasma was prepared, and tissues were collected at the corresponding time and prepared into tissue homogenates. Drug concentration was analyzed by LC-MS/MS, and pharmacokinetic parameters were calculated by Phoenix WinNonlin software.

Sequence of Recombinant Human Ketohexokinase (KHK) (P50053 whole entry): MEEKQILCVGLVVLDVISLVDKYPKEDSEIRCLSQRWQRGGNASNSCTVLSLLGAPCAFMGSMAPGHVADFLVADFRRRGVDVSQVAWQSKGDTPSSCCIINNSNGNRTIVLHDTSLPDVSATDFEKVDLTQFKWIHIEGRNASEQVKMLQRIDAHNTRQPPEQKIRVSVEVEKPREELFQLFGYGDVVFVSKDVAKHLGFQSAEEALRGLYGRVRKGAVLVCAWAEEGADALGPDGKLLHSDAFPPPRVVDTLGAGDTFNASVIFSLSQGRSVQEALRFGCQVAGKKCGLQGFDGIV

Row | Compound | IC50 [1] | further results
1 | C[C@H]1CCN1c1nc(N2CC3(C[C@H]3C(=O)O)C2)c2cc(Cl)sc2n1 [WX044] | 81 nM | –
2 | C[C@H]1CCN1c1nc(N2C[C@@H]3[C@@H](CC(=O)O)[C@@H]3C2)c2cc(F)sc2n1 [WX028] | 50 nM | –
3 | C[C@H]1CCN1c1nc(Nc2cc(F)c(C(=O)O)c(F)c2)c2ccsc2n1 [WX015] | 6.7 nM | –
4 | C[C@H]1CCN1c1nc(N2C[C@@H]3[C@@H](CC(=O)O)[C@@H]3C2)c2c(F)csc2n1 [WX030] | 31 nM | AUC of integral fructose concentration for dosed group [2]: 1029 nM·h; AUC of integral fructose concentration of dosed group/AUC of Integral fructose concentration of control group [2]: 9.2
5 | C[C@H]1CCN1c1nc(Nc2ccc(C(=O)O)cc2)c2ccsc2n1 [WX012] | 9.4 nM | concentration at 1.5 h ([3]; liver, 1.5 h, read-out: Liver tissue concentration): 2100 nM; concentration at 2 h ([3]; liver, 2.0 h, read-out: Liver tissue concentration): 618 nM; concentration at 6 h ([3]; liver, 6.0 h, read-out: Liver tissue concentration): 634 nM; Kp at 1.5 h ([3]; liver/plasma, 1.5 h, read-out: Liver-blood ratio): 2.62; Kp at 2 h ([3]; liver/plasma, 2.0 h, read-out: Liver-blood ratio): 2.32; Kp at 6 h ([3]; liver/plasma, 6.0 h, read-out: Liver-blood ratio): 4.39; concentration at 1.5 h ([3]; plasma, 1.5 h, read-out: Plasma concentration): 810 nM; concentration at 2 h ([3]; plasma, 2.0 h, read-out: Plasma concentration): 273 nM; concentration at 6 h ([3]; plasma, 6.0 h, read-out: Plasma concentration): 145 nM
6 | C[C@H]1CCN1c1nc(-c2ccc(CC(=O)O)c(F)c2)c2ccsc2n1 [WX022] | 200 nM | –
7 | C[C@H]1CCN1c1nc(N2CC3(CC3C(=O)O)C2)c2cccc(F)c2n1 (stereo partly shown) [WX034] | 110 nM | –
8 | C[C@H]1CCN1c1nc(N2CC3(CC3C(=O)O)C2)c2c(F)csc2n1 (stereo partly shown) [WX037] | 150 nM | –
9 | C[C@H]1CCN1c1nc(N2CC3(C[C@@H]3C(=O)O)C2)c2cc(Cl)sc2n1 [WX045] | 30 nM | –
10 | C[C@H]1CCN1c1nc(-c2ccnc(CCC(=O)O)c2)c2ccsc2n1 [WX033] | 71 nM | –
11 | C[C@H]1CCN1c1nc(N2CC3(C[C@@H]3CC(=O)O)C2)c2cc(Cl)sc2n1 [WX056] | 360 nM | –
12 | C[C@H]1CCN1c1nc(N2CCC3(CC3C(=O)O)C2)c2ccsc2n1 (stereo partly shown) [WX027] | 250 nM | –
13 | C[C@H]1CCN1c1nc(N2C[C@@H]3[C@@H](CC(=O)O)[C@@H]3C2)c2cccc(F)c2n1 [WX024] | 61 nM | AUC of integral fructose concentration for dosed group [2]: 1858 nM·h; AUC of integral fructose concentration of dosed group/AUC of Integral fructose concentration of control group [2]: 13.4
14 | C[C@H]1CCN1c1nc(N2CC3(C[C@H]3CC(=O)O)C2)c2cc(Cl)sc2n1 [WX057] | 200 nM | –
15 | C[C@H]1CCN1c1nc2c(c(N3C[C@@H]4[C@@H](CC(=O)O)[C@@H]4C3)n1)CCS2 [WX026] | 91 nM | AUC of integral fructose concentration for dosed group [2]: 993 nM·h; AUC of integral fructose concentration of dosed group/AUC of Integral fructose concentration of control group [2]: 8.9
16 | C[C@H]1CCN1c1nc(N2CC3(C2)CC3(C)C(=O)O)c2cc(Cl)sc2n1 (stereo partly shown) [WX049] | 210 nM | –
17 | C[C@H]1CCN1c1nc(Nc2ccc(CC(=O)O)cc2)c2ncsc2n1 [WX003] | 110 nM | –
18 | C[C@H]1CCN1c1nc(-c2cccc(CCC(=O)O)n2)c2ccsc2n1 [WX047] | 630 nM | –
19 | C[C@H]1CCN1c1nc(N2CC3(C[C@@H]3CC(=O)O)C2)c2ccsc2n1 [WX054] | 1000 nM | –
20 | C[C@H]1CCN1c1nc(N2CC3(C[C@@H]3C(=O)O)C2)c2ccsc2n1 [WX020] | 130 nM | AUC of integral fructose concentration for dosed group [2]: 1180 nM·h; AUC of integral fructose concentration of dosed group/AUC of Integral fructose concentration of control group [2]: 8.5
21 | C[C@H]1CCN1c1nc2c(c(N3C[C@@H]4[C@@H](CC(=O)O)[C@@H]4C3)n1)CSC2 [WX021] | 160 nM | –
22 | C[C@H]1CCN1c1nc(N2C[C@@H]3[C@@H](CC(=O)O)[C@@H]3C2)c2cc(Cl)sc2n1 [WX029] | 28 nM | AUC of integral fructose concentration for dosed group [2]: 1687 nM·h; AUC of integral fructose concentration of dosed group/AUC of Integral fructose concentration of control group [2]: 15.1
23 | C[C@H]1CCN1c1nc(N2CC3(C[C@H]3C(=O)O)C2)c2cccc(F)c2n1 [WX040] | 320 nM | –
24 | C[C@H]1CCN1c1nc(-c2cncc(CCC(=O)O)c2)c2ccsc2n1 [WX048] | 92 nM | –

Row | Compound | IC50 [1] | further results
25 | C[C@H]1CCN1c1nc(N2C[C@@H]3[C@@H](CC(=O)O)[C@@H]3C2)c2scc(C#N)c2n1 [WX023] | 210 nM | –
26 | C[C@H]1CCN1c1nc(Nc2ccc(CC(=O)O)c(F)c2)c2ccsc2n1 [WX010] | 15 nM | –
27 | C[C@H]1CCN1c1nc(N2CC[C@H](CC(=O)O)C2)c2ccsc2n1 [WX025] | 240 nM | –
28 | C[C@H]1CCN1c1nc(-c2cncc(OCC(=O)O)c2)c2ccsc2n1 [WX039] | 36 nM | –
29 | C[C@H]1CCN1c1nc(N2CC3(C[C@@H]3C(=O)O)C2)c2cccc(F)c2n1 [WX041] | 52 nM | AUC of integral fructose concentration for dosed group [2]: 1704 nM·h; AUC of integral fructose concentration of dosed group/AUC of Integral fructose concentration of control group [2]: 6.5
30 | C[C@H]1CCN1c1nc(N2C[C@@H]3[C@@H](CC(=O)O)[C@@H]3C2)nc2ncsc12 [WX005] | 650 nM | –
31 | C[C@H]1CCN1c1nc(Nc2ccc(C(=O)O)c(C#N)c2)c2ccsc2n1 [WX011] | 17 nM | –
32 | C[C@H]1CCN1c1nc(N2CC3(CC3C(=O)O)C2)c2cc(Cl)sc2n1 (stereo partly shown) [WX036] | 69 nM | –
33 | C[C@H]1CCN1c1nc(-c2cccc(/C=C/C(=O)O)c2)c2ccsc2n1 [WX017] | 20 nM | –
34 | C[C@H]1CCN1c1nc(N2CC(CC(=O)O)C2)c2ccsc2n1 [WX018] | 390 nM | –
35 | C[C@H]1CCN1c1nc(Nc2cc(F)c(CC(=O)O)c(F)c2)c2ccsc2n1 [WX014] | 14 nM | –
36 | C[C@H]1CCN1c1nc(NC2CC3(C2)CC3C(=O)O)c2cc(Cl)sc2n1 (stereo partly shown) [WX051] | 69 nM | –
37 | C[C@H]1CCN1c1nc(N2CC3(CC3C(=O)O)C2)c2cccc(Cl)c2n1 (stereo partly shown) [WX050] | 260 nM | –
38 | C[C@H]1CCN1c1nc(N2CC3(C[C@H]3CC(=O)O)C2)c2ccsc2n1 [WX055] | 650 nM | –
39 | C[C@H]1CCN1c1nc(N2CC3(C[C@H]3C(=O)O)C2)c2ccsc2n1 [WX019] | 110 nM | AUC of integral fructose concentration for dosed group [2]: 849 nM·h; AUC of integral fructose concentration of dosed group/AUC of Integral fructose concentration of control group [2]: 6.1
40 | Cc1csc2nc(N3CC[C@@H]3C)nc(Nc3ccc(CC(=O)O)cc3)c12 [WX007] | 16 nM | –
41 | C[C@H]1CCN1c1nc(N2CC3(CC3C(=O)O)C2)c2ccsc2n1 (stereo partly shown) [WX009] | 100 nM | –
42 | C[C@H]1CCN1c1nc(-c2cccc(CCC(=O)O)c2)c2ccsc2n1 [WX016] | 32 nM | –
43 | C[C@H]1CCN1c1nc(NC2CC(C(=O)O)C2)c2ccsc2n1 (stereo partly shown) [WX032] | 150 nM | –
44 | Cc1csc2nc(N3CC[C@@H]3C)nc(N3C[C@@H]4C(CC(=O)O)[C@@H]4C3)c12 (stereo partly shown) [WX008] | 210 nM | –
45 | C[C@H]1CCN1c1nc(N2C[C@@H]3[C@@H](CC(=O)O)[C@@H]3C2)c2sccc2n1 [WX046] | 700 nM | –
46 | C[C@H]1CCN1c1nc(N2CC3(CCC3C(=O)O)C2)c2cc(Cl)sc2n1 (stereo partly shown) [WX038] | 480 nM | –
47 | C[C@H]1CCN1c1nc(N2C[C@@H]3[C@@H](CC(=O)O)[C@@H]3C2)c2scnc2n1 [WX002] | 190 nM | –
